In general, IC50 refers to the midpoint of a concentration-inhibition curve.

These results are taken from paper PMC10897598, “TwinF interface inhibitor FP802 stops loss of motor neurons and mitigates disease progression in a mouse model of ALS” (Cell Reports Medicine, 2024).

Assay [1] deals with primary mouse cortical neurons. As to conditions: FP802 10 μM, 30 min pre-incubation, NMDA 20 μM, 2 h.
Experimental: Primary mouse cortical neurons were pre-incubated with FP802 (10 μM) or vehicle for 30 min before a 2-h treatment with either bicuculline (Bic, 50 μM) to induce action potential (AP) bursting or NMDA (20 μM) to induce excitotoxic insults. The mRNA levels of Arc, Atf3, Bdnf, c-Fos, Inhibin beta A, and Npas4 were assessed by RT-qPCR. Data represent means ± SD, n = 3; ns: no significant difference, ∗p < 0.05, ∗∗p < 0.01, ∗∗∗p < 0.001, two-way ANOVA followed by Dunnett's multiple comparisons.
Primary mouse cortical neurons were prepared as previously described.[43]^,[44] Briefly, brain cortices from neonatal mice (C57/Bl6, RRID:MGI:7264769) were removed and cut into small pieces in the dissociation medium (in mM: 81.8 Na2SO4, 30 K2SO4, 15.85 MgCl2, 0.25 CaCl2, 1.0 HEPES, 1050.0 kynurenic acid; 0.2% phenol red and 0.36% glucose). The tissues were then digested with papain latex (10 units/mL) in the dissociation medium supplemented with 0.45 mg/mL L-cysteine for two times of 15 min in a 37°C water bath with stirring at 15 rpm. Then the tissue was washed twice with the dissociation medium and incubated with trypsin inhibitor (0.01 g/mL) in dissociation medium for 3 × 5 min. The samples were then triturated into single cell solution and plated at a density of 0.25 × 10^6 cell per well in 24-well plates, which have been pretreated with poly-D-lysine (26.7 mg/μL) and laminin (6.7 mg/μL). […]
The test system of assay [2] is human iPSC-derived forebrain organoids. The experiment in a line: NMDA-induced neurotoxicity in human iPSC-derived forebrain organoids. The assay is classed as cell-based. To be noted: for IC50: Homo sapiens, NMDA 300 μM, read-out: IC50, protection against NMDA-induced neurotoxicity. The method, then:
The generation of human-iPSC-derived forebrain organoids was carried out in accordance with the regulations of Heidelberg University. The sporadic ALS iPSC line and the SOD1^G94A ALS iPSC line were purchased from Cedars-Sinai (CS2XWCiALS-nxx and CS2RJViALS-nxx). The healthy control iPSC lines were from Dr. Jochen Utikal (DKFZ, Germany). Forebrain organoids were generated and maintained as described previously.[37]^,[45] Briefly, hiPSCs were dissociated into single cells by Accutase and aggregated in round bottom 96-microwell plates with 5 min centrifugation at 600 rpm. On the second day, hiPSC aggregates were collected and transferred into low attachment 35 mm dishes (24 aggregates/dish) and kept in neural induction medium (DMEM/F12 medium supplemented with 1× penicillin/streptomycin, 1× Normocin, 1× GlutaMAX, 1× N-2 supplement, 2× B27 without vitamin A, 500 nM dorsomorphin, 50 ng/mL recombinant human noggin, 10 μM SB431542, 2 μM IWP-2, 1 μM cyclopamine, and 0.1% β-mercaptoethanol) for 3 days with a daily medium change. Recombinant human FGF (10 ng/mL) was present in neural induction medium from day 4 to day 7 with one medium change on day 5.5. On day 7, neural induction medium was changed to proliferation medium (neurobasal medium supplemented with 1× GlutaMAX, 1× penicillin/streptomycin, 1× Normocin, 1× B27 without vitamin A, 10 ng/mL recombinant human FGF, 10 ng/mL recombinant human EGF, 2 μM IWP-2, and 1 μM cyclopamine) for two weeks with medium change every 2–3 days. In week 4–5, the proliferation medium was changed to differentiation medium (neurobasal medium supplemented with 1× GlutaMAX, 1× penicillin/streptomycin, 1× Normocin, 10 ng/mL recombinant human BDNF, and 10 ng/mL recombinant human NT-3) with medium change every 2–3 days. From week 6, the organoids were kept in the maturation medium (BrainPhys medium supplemented with 1× GlutaMAX, 1× penicillin/streptomycin, 1× Normocin) until week 18–20 when they were used for experiments.
The analysis of forebrain organoid cell types that undergo NMDA-induced cell death was done using immunostainings of cryosections of 20-week-old forebrain organoids with antibodies against the neuronal markers, NeuN and Myelin transcription factor 1 like (Myt1L) protein, and the astrocyte marker, glial fibrillary acidic protein (GFAP) using the following procedure. All organoids were washed with PBS twice and fixed using 4% paraformaldehyde in PBS for 30 min, followed by 24 h incubation with 30% sucrose solution in PBS. Organoids were snap frozen on dry ice in cryoprotectants and 30 μm cryosections were prepared for staining. […] Cells stained with NeuN, Myt1L, and Hoechst were automatically counted with ImageJ with the particle analyzer with a self-developed macro using the Binary-Watershed function, size exclusion was set at 60 μm^2. NeuN-positive and Myt1L-positive post-mitotic neurons were counted in confocal section z-stacks of whole organoids (5–8 organoids from 2 batches) with ImageJ with the particle analyzer with a self-developed macro using the Binary-Watershed function, size exclusion was set at 60 μm^2 and expressed as a percentage of total Hoechst-stained nuclei. GFAP staining was quantified by measuring the fluorescent signals of z-stacks of confocal sections of whole organoids (5–6 organoids from 2 batches) using ImageJ and expressed as arbitrary units. […]

Each structure is given as a SMILES string. Read-outs that look alike come from different tables or passages of the source.

As for `CCN(CCN)Cc1cccc(Cl)c1` [FP802], the “transcriptional shut-off induced by eNMDARs” value in assay [1] was “eliminated”. In assay [1] (RT-qPCR, levels comparable to bicuculline-induced AP bursting), the “NMDA bath application-induced expression of IEGs Atf3, Arc, Bdnf, cFos, Inhibin beta A, Npas4” value was “boosted”. Moreover, the IC50 in assay [2] (SOD1G94A ALS organoids) is 9 µM; in assay [2] (healthy control-1 organoids), 26 µM; in assay [2] (healthy control-2 organoids), 15 µM; in assay [2] (sporadic ALS organoids) it was 9.3 µM. Also, the “NMDA-induced death of neurons in ALS patient-derived organoids” value in assay [2] (NMDA 300 μM 24 h, NeuN/Myt1L immunostaining and viability, dose-dependent) was “effectively blocked”.
